Assay results from US20240132431A1, “METHOD FOR ALKYLATING ACIDIC FUNCTIONAL GROUP” (Chugai Seiyaku Kabushiki Kaisha, priority 2021, published 2024).
One block for each compound: values may come before it.

Target: T1, Bcl-2 protein (Recombinant Human Bcl-2 Protein) (Homo sapiens, UniProt P10415)
T1 construct: purchased Novus NBP2-34889
Assay: Binding evaluation of mixture library compounds to Bcl-2 using AS-MS (affinity selection mass spectrometry)
Details: for ASMS ratio (%) n = 1 / ASMS ratio (%) n = 2: ASMS Ratio(%)=(A−C)/B×100; for ASMS ratio (%) n = 1: replicate n = 1; for ASMS ratio (%) n = 2: replicate n = 2
Description: For one well of MICROPLATE, 96-well, PP, V-BOTTOM (Greiner bio-one, 651201), DMSO solutions of 12 mixtures (prepared to approximately 0.58 mM based on calculations from the average molecular weight of each mixture), in each of which 100 compounds are mixed, were each dispensed, and dispensed into a total of 12 wells, where the 12 mixtures are mixAI-B4J-01, mixAI-B1M-01, mixAI-B1K-01, mixAI-B10-01, mixAI-B1A-01, mixAI-B3A-01, mixAI-B21-01, mixAI-B2L-01, mixAI-B2N-01, mixAI-B2A-01, mixAI-B2Q-01, and mixAI-B2R-01 listed in [Table AI-03-B4J-01], [Table AI-03-B1M-01], [Table AI-03-B1K-01], [Table AI-03-B10-01], [Table AI-03-B1A-01], [Table AI-03-B3A-01], [Table AI-03-B2I-01], [Table AI-03-B2L-01], [Table AI-03-B2N-01], [Table AI-03-B2A-01], [Table AI-03-B2Q-01], and [AI-03-B2R-01] shown in Example 6. Using the LABCYTE ECHO® 555 Acoustic Dispensing System (BECKMAN COULTER), 70 nL was collected from each of the 12 wells into one arbitrary well to prepare a sample solution with 1200 compounds in the mixed state (the presence of 1152 compounds had already been identified when prepared in Example 6-5-3). (In the present specification, the mixture collected in this one well is referred to as one library.) Furthermore, a Bcl-2 protein (Novus, NBP2-34889, Recombinant Human Bcl-2 Protein, Lot E60145051) (19.2 μL) that had been prepared in advance to be 20.9 μM using a Tris-HCl buffer (25 mM Tris-HCl pH 7.4, 150 mM NaCl, 0.025% Tween-20, 1 mM DTT) was added to the well in which 1200 compounds (the presence of 1152 compounds had already been identified when prepared in Example 6-5-3) were dispensed (final compound concentration […], final Bcl-2 concentration 20 μM), and the mixture was incubated in the dark at 23° C. for 1 hour. Next, using the 96-well MacroSpin column, P-2 Material (Harvard, 74-5655) that had been swollen, conditioning of the 96-well MacroSpin column was performed three times by centrifugation with 200 μL of an assay buffer (25 mM Tris-HCl pH 7.4, 150 mM NaCl, 0.025% Tween-20, 1 mM DTT), 2000 XG, 4° C., 2 min. Subsequently, 20 μL of the sample after incubation was added to the 96-well MacroSpin column, P-2 Material, that had been conditioned, and SEC treatment was performed by centrifugation at 2000×G for 2 minutes. To the liquid passed from the SEC, 32 μL of a 1:1 mixed solution of acetonitrile and methanol (LC/MS grade, Fujifilm Wako Pure Chemical Corporation) was added, the mixture was centrifuged at 1800×G, 4° C., 5 min, and the supernatant was used as analysis sample ASMS (A), while a sample that had been prepared by the same operations at 1200 compounds/well and to which only the Tris-HCl buffer had been added without the Bcl-2 protein was incubated under the same conditions, no 96-well MacroSpin column treatment was performed, the same organic solvent was added, and the supernatant solution obtained by centrifugation was used as STD (B). Next, a sample that had been prepared by the same operations at 1200 compounds/well and to which only the Tris-HCl buffer had been added without the Bcl-2 protein was incubated under the same conditions, the same 96-well MacroSpin column treatment was performed, the same organic solvent was added, and the supernatant solution obtained by centrifugation was used as BK (C), and measured by reversed phase LC/MS.
Then, analysis of the 1200 compounds was carried out for samples A, B, and C with TraceFinder 5.1 (Thermo Fisher Scientific) and CHANCE Software (in-house), and the ASMS Ratio (%) was calculated according to the following calculation formula.
Calculation formula: ASMS Ratio(%)=(A−C)/B×100

[1] = AS-MS on the mixture of 1200 library compounds
[2] = AS-MS, mixture of 1200 compounds, Bcl-2

T1 sequence (P10415 whole entry): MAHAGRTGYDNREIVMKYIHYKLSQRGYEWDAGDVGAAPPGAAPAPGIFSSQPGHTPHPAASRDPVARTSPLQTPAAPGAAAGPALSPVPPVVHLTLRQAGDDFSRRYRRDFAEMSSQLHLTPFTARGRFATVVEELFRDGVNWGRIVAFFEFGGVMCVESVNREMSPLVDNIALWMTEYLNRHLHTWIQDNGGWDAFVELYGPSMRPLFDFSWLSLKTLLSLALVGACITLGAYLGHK

Compound: 4-[4-[2-[2-(5-Ethoxypyridin-3-yl)ethynyl]benzoyl]piperazin-1-yl]-N-propylbenzamide [B1M098-01]
ASMS ratio (%) n = 1 [1]: 0.9%
ASMS ratio (%) n = 2 [1]: 0.3%

Compound: CCOc1cncc(-c2cc(C(=O)N3CCN(c4ccc(C(=O)NS(=O)(=O)C(C)(C)C)nn4)CC3)cc(C(F)(F)F)c2)c1 [B2L018-01, N-tert-Butylsulfonyl-6-[4-[3-(5-ethoxypyridin-3-yl)-5-(trifluoromethyl)benzoyl]piperazin-1-yl]pyridazine-3-carboxamide]
ASMS ratio (%) (n = 1): −1.9%
ASMS ratio (%) (n = 2): −2.5%

Compound: CCOc1cncc(C#Cc2ccccc2CN2CCN(c3ccc(C(=O)NS(=O)(=O)c4ccc(NCCSc5ccccc5)c([N+](=O)[O-])c4)cc3)CC2)c1 [B2Q070-01, 4-[4-[[2-[2-(5-Ethoxypyridin-3-yl)ethynyl]phenyl]methyl]piperazin-1-yl]-N-[3-nitro-4-(2-phenylsulfanylethylamino)phenyl]sulfonylbenzamide]
ASMS ratio (%) n = 1 (AS-MS, mixture library, Bcl-2): 14.3%
ASMS ratio (%) n = 2 (AS-MS, mixture library, Bcl-2): −9.0%

Compound: CCOc1cccc(C#Cc2cc(C(=O)N3CCN(c4ccc(C(=O)NCC(F)(F)F)nn4)CC3)cc(C(F)(F)F)c2)c1 [B1K019-01, 6-[4-[3-[2-(3-Ethoxyphenyl)ethynyl]-5-(trifluoromethyl)benzoyl]piperazin-1-yl]-N-(2,2,2-trifluoroethyl)pyridazine-3-carboxamide]
ASMS ratio (%) n = 1 [2]: 0.0%
ASMS ratio (%) n = 2 [2]: 0.0%

Compound: CCOc1cncc(C#Cc2ccccc2CN2CCN(c3ccc(C(=O)NS(C)(=O)=O)nn3)CC2)c1 [B2I096-01, 6-[4-[[2-[2-(5-Ethoxypyridin-3-yl)ethynyl]phenyl]methyl]piperazin-1-yl]-N-methylsulfonylpyridazine-3-carboxamide]
ASMS ratio (%) (n = 1): 0.0%
ASMS ratio (%) (n = 2): 0.0%

Compound: CCOc1cncc(-c2cc(C(=O)N3CCN(c4ccc(C(=O)NS(=O)(=O)c5ccc(NCCSc6ccccc6)c([N+](=O)[O-])c5)nn4)CC3)cc(C(C)(C)C)c2)c1 [B2Q016-01, 6-[4-[3-tert-Butyl-5-(5-ethoxypyridin-3-yl)benzoyl]piperazin-1-yl]-N-[3-nitro-4-(2-phenylsulfanylethylamino)phenyl]sulfonylpyridazine-3-carboxamide]
ASMS ratio (%) n = 1 (AS-MS, mixture library, Bcl-2): 10.6%
ASMS ratio (%) n = 2 (AS-MS, mixture library, Bcl-2): 6.5%

Compound: CCOc1cccc(C#Cc2ccccc2CN2CCN(c3ccc(C(=O)NS(C)(=O)=O)nn3)CC2)c1 [B2I095-01, 6-[4-[[2-[2-(3-Ethoxyphenyl)ethynyl]phenyl]methyl]piperazin-1-yl]-N-methylsulfonylpyridazine-3-carboxamide]
ASMS ratio (%) (n = 1): 0.0%
ASMS ratio (%) (n = 2): 0.0%

Compound: CCOc1cccc(-c2cc(C(=O)N3CCN(c4ccc(C(=O)NS(=O)(=O)c5ccc(NCCSc6ccccc6)c([N+](=O)[O-])c5)nn4)CC3)cc(C(C)(C)C)c2)c1 [B2Q015-01, 6-[4-[3-tert-Butyl-5-(3-ethoxyphenyl)benzoyl]piperazin-1-yl]-N-[3-nitro-4-(2-phenylsulfanylethylamino)phenyl]sulfonylpyridazine-3-carboxamide]
ASMS ratio (%) n = 1 (AS-MS, mixture library, Bcl-2): 17.1%
ASMS ratio (%) n = 2 (AS-MS, mixture library, Bcl-2): 13.2%

Compound: CCOc1cccc(-c2cc(C(=O)N3CCN(c4ccc(C(=O)NS(=O)(=O)c5ccc(NCCSc6ccccc6)c([N+](=O)[O-])c5)cc4)CC3)cc(C(C)(C)C)c2)c1 [B2Q037-01, 4-[4-[3-tert-Butyl-5-(3-ethoxyphenyl)benzoyl]piperazin-1-yl]-N-[3-nitro-4-(2-phenylsulfanylethylamino)phenyl]sulfonylbenzamide]
ASMS ratio (%) n = 1 (AS-MS, mixture library, Bcl-2): 10.9%
ASMS ratio (%) n = 2 (AS-MS, mixture library, Bcl-2): −1.5%

Compound: CCOc1cncc(-c2ccc(CN3CCN(c4ccc(C(=O)NS(=O)(=O)c5ccc(NCCSc6ccccc6)c([N+](=O)[O-])c5)nn4)CC3)c(CC)c2)c1 [B2Q076-01, 6-[4-[[4-(5-Ethoxypyridin-3-yl)-2-ethylphenyl]methyl]piperazin-1-yl]-N-[3-nitro-4-(2-phenylsulfanylethylamino)phenyl]sulfonylpyridazine-3-carboxamide]
ASMS ratio (%) n = 1 (AS-MS, mixture library, Bcl-2): 0.0%

Further lines, results first:

ASMS ratio (%) n = 1 [1]: −7.3%
ASMS ratio (%) n = 2 [1]: 4.0%
Compound: CCOc1cccc(-c2csc(CN3CCN(c4ccc(C(=O)N(C)CC56CC7CC(CC(C7)C5)C6)cc4)CC3)c2)c1 [B3A067-01, N-(1-Adamantylmethyl)-4-[4-[[4-(3-ethoxyphenyl)thiophen-2-yl]methyl]piperazin-1-yl]-N-methylbenzamide]

ASMS ratio (%) n = 1 [1]: 0.0%
ASMS ratio (%) n = 2 [1]: 0.0%
Compound: CCOc1cccc(-c2ccc(CN3CCN(c4ccc(C(=O)N(C)CC56CC7CC(CC(C7)C5)C6)cc4)CC3)c3ccccc23)c1 [B3A065-01, N-(1-Adamantylmethyl)-4-[4-[[4-(3-ethoxyphenyl)naphthalen-1-yl]methyl]piperazin-1-yl]-N-methylbenzamide]

ASMS ratio (%) (n = 1): −1.5%
ASMS ratio (%) (n = 2): −0.7%
Compound: CCOc1cncc(-c2ccc(C(=O)N3CCN(c4ccc(C(=O)NS(=O)(=O)CCC(F)(F)F)cc4)CC3)cc2C)c1 [B2N026-01, 4-[4-[4-(5-Ethoxypyridin-3-yl)-3-methylbenzoyl]piperazin-1-yl]-N-(3,3,3-trifluoropropylsulfonyl)benzamide]

ASMS ratio (%) n = 1 [2]: 4.1%
ASMS ratio (%) n = 2 [2]: 1.2%
Compound: CCOc1cncc(-c2csc(C(=O)N3CCN(c4ccc(C(=O)NCC56CC7CC(CC(C7)C5)C6)cc4)CC3)c2)c1 [B1A024-01, N-(1-Adamantylmethyl)-4-[4-[4-(5-ethoxypyridin-3-yl)thiophene-2-carbonyl]piperazin-1-yl]benzamide]

ASMS ratio (%) n = 1 [1]: 6.9%
ASMS ratio (%) n = 2 [1]: −6.3%
Compound: CCOc1cccc(-c2cc(C(=O)N3CCN(c4ccc(C(=O)N(C)CC56CC7CC(CC(C7)C5)C6)nn4)CC3)cc(C(F)(F)F)c2)c1 [B3A017-01, N-(1-Adamantylmethyl)-6-[4-[3-(3-ethoxyphenyl)-5-(trifluoromethyl)benzoyl]piperazin-1-yl]-N-methylpyridazine-3-carboxamide]

ASMS ratio (%) n = 1 [2]: 2.4%
ASMS ratio (%) n = 2 [2]: −0.2%
Compound: CCOc1cccc(-c2ccc(CN3CCN(c4ccc(C(=O)NCC(F)(F)F)nn4)CC3)cc2F)c1 [B1K077-01, 6-[4-[[4-(3-Ethoxyphenyl)-3-fluorophenyl]methyl]piperazin-1-yl]-N-(2,2,2-trifluoroethyl)pyridazine-3-carboxamide]

ASMS ratio (%) n = 1 [1]: 2.5%
ASMS ratio (%) n = 2 [1]: −2.9%
Compound: CCOc1cncc(-c2cc(C(=O)N3CCN(c4ccc(C(=O)N(C)CC56CC7CC(CC(C7)C5)C6)cc4)CC3)cc(C(C)(C)C)c2)c1 [B3A038-01, N-(1-Adamantylmethyl)-4-[4-[3-tert-butyl-5-(5-ethoxypyridin-3-yl)benzoyl]piperazin-1-yl]-N-methylbenzamide]

ASMS ratio (%) n = 1 (AS-MS, mixture library, Bcl-2): 10.1%
ASMS ratio (%) n = 2 (AS-MS, mixture library, Bcl-2): −0.9%
Compound: CCOc1cncc(C#Cc2cc(C(=O)N3CCN(c4ccc(C(=O)NS(=O)(=O)CC56CC7CC(CC(C7)C5)C6)cc4)CC3)cc(C(F)(F)F)c2)c1 [B2A042-01, N-(1-Adamantylmethylsulfonyl)-4-[4-[3-[2-(5-ethoxypyridin-3-yl)ethynyl]-5-(trifluoromethyl)benzoyl]piperazin-1-yl]benzamide]
